Results from the NIST ThermoML archive (doi:10.1016/j.fluid.2016.02.005).
Numbers after ± are expanded uncertainties.

Conditions: Liquid, Closed cell (Static) method

## C=C(F)C(F)(F)F [2,3,3,3-tetrafluoro-1-propene]
254.1 K
  vapor or sublimation pressure: 156.8 ± 1.2 kPa
273.43 K
  vapor or sublimation pressure: 318.2 ± 1.6 kPa
293.24 K
  vapor or sublimation pressure: 592.7 ± 2.5 kPa
303.17 K
  vapor or sublimation pressure: 783.9 ± 3.4 kPa
318.08 K
  vapor or sublimation pressure: 1153.4 ± 4.8 kPa
332.97 K
  vapor or sublimation pressure: 1641.5 ± 6.8 kPa
348.4 K
  vapor or sublimation pressure: 2288.8 ± 9.1 kPa
